Laboratory results reported in publication PMC4132742, “Inhibition of RNA binding to hepatitis C virus RNA-dependent RNA polymerase: a new mechanism for antiviral intervention” (Nucleic Acids Research, 2014).
Like-named read-outs stand apart in the source and are kept apart here.

Tests used:
[1] = biological target: T1, HCV-NS5BΔ21 RdRp genotype 1b (strain J4) (Hepatitis C virus genotype 1b, UniProt O92972); assay: biochemical; set-up: His6 (N); made in house; host or cells: Escherichia coli C41(DE3); conditions: for inhibition at 20 µM / Slope of fluorescence increase / % HCV-NS5BΔ21 inhibition: 20 μM compound; for Slope of fluorescence increase: no treatment control slope 62.0
Protocol: (§1) The HCV RdRps (NS5B protein) from reference strains H77 (genotype 1a), J4 (genotype 1b) and JFH1 (genotype 2a), truncated of their 21 C-terminal amino acids to ensure solubility (NS5BΔ21) and carrying a hexahistidine tag (His6-Tag) at their N-terminus, were expressed in Escherichia coli C41(DE3) and purified as previously described ([20]). Briefly, cultures were grown at 37°C for ∼1 h and induced with 1 mM isopropyl β-D-thiogalactoside for 4 h at 37°C. […] After sonication, cell lysates were clarified by centrifugation, and chromatography was performed on a Ni-NTA column (Qiagen, Hilden, Germany). The bound protein was eluted in 1 ml fractions with a buffer containing 50 mM NaH2PO4 (pH 8.0), 500 mM NaCl and 250 mM imidazole. NS5BΔ21-enriched fractions were selected using a Bradford colorimetric assay, and HCV-NS5BΔ21 purity was determined by Coomassie-stained sodium dodecyl sulfate-polyacrylamide electrophoresis gel (SDS-PAGE) analysis. Purified NS5BΔ21 fractions were pooled and dialyzed against a buffer containing 5 mM Tris (pH 7.5), 0.2 M sodium acetate, 1 mM DTT, 1 mM ethylenediaminetetraacetic acid (EDTA) and 10% glycerol.
(§2) The cell-free HCV-NS5BΔ21 polymerase assay is based on the real-time measurement of the amount of double-stranded RNA synthesized in the presence of HCV-NS5BΔ21, a homopolymeric RNA template (poly U or poly C, GE Healthcare, Chalfont St. Giles, UK) and the corresponding nucleotide, by means of an intercalating agent (SYBR® Green, Applied Biosystems, Carlsbad, CA, USA), as previously described ([20]). For screening, HCV-NS5BΔ21 polymerase activity was quantified by the slope of fluorescence increase in the presence of 20 μM of the tested flavonoid compounds and compared with the control reaction containing no inhibitor. […] The reported values are the average of three independent measurements performed in duplicate. For kinetics analysis, initial reaction velocities were measured at different nucleotide (adenosine triphosphate (ATP) or GTP) and studied compound concentrations, without pre-incubation and in the presence of 50 μg/ml of the corresponding homopolymeric RNA template (Poly U and Poly C, respectively). The concentration of NS5BΔ21 (J4 strain, genotype 1b) in the reaction was 0.1 mg/ml. Kinetics data were graphically represented as double reciprocal plots. Data points were fitted by linear regression to identify the inhibition mode of the compound.

[2] = tested on: HCV NS5B protein expression; assay: Western blot analysis of NS5B in Con1 replicon cells; type: cell-based, hepatitis C virus; conditions: Huh7.5 cells, 72 h, increasing concentrations
Protocol: HCV Con1 replicon-harboring cells were seeded at a density of 90 000 cells per well in 6-well plates. […] NS5B and actin were detected using specific monoclonal antibodies (Enzo Life Sciences, Firmingdale, NY, USA and Sigma Aldrich, Saint Louis, MO, USA, respectively).

[3] = biological target: T2, HCV-NS5BΔ21 RdRp mutants (Hepatitis C virus genotype 1b, UniProt O92972, F2581Y); type: biochemical; conditions: F162Y variant (33% of wild-type activity at baseline)
T2 construct: His6 (N); made in house; host or cells: Escherichia coli C41(DE3)
Source text: as §2

[4] = biological target: T3, HCV-NS5BΔ21 RdRp mutants (Hepatitis C virus genotype 1b, UniProt O92972, V2535I); type: biochemical; conditions: enzyme assay and genotype 1b subgenomic replicon, data not shown
T3 construct: His6 (N); made in house; host or cells: Escherichia coli C41(DE3)
Source text: as §2

[5] = tested on: HCV-NS5BΔ21 RdRp mutants; type: biochemical, hepatitis C virus; conditions: S96A and G557A mutants
Source text: as §2

[6] = tested on: RNA duplex; assay: RNA duplex fluorescence assay; conditions: 20 μM compound
[7] = biological target: T1, HCV-NS5BΔ21 RdRp genotype 1b (strain J4); assay: biochemical; conditions: range over three genotypes; read-out: IC50 in the enzyme assay, genotypes 1b, 1a and 2a
Protocol: as §1, with “glycerol. […]” for “glycerol.”

[8] = biological target: T4, RNA binding to HCV-NS5BΔ21 (Hepatitis C virus genotype 1b, UniProt O92972); assay: HCV-NS5BΔ21-RNA ELISA assay; conditions: dose-dependent
T4 construct: made in house; host or cells: Escherichia coli C41(DE3)
Protocol: Ninety-six-well plates were coated with streptavidin (100 μg/ml in 0.1 M NaHCO3, 50 μl/well) overnight at 4°C. The plates were washed six times with 200 μl phosphate-buffered saline (PBS)-T and blocked with 50 μl of 3% BSA and 0.1 μg/ml of streptavidin in PBS overnight at 4°C, then four times with 0.1% PBS-Tween. A mix of 5 pmol of biotinylated RNA and 0.5 μg of HCV-NS5BΔ21 previously incubated for 30 min at 37°C in a binding buffer containing 50 mM Tris (pH 7.5), 150 mM NaCl, 0.02 mg/ml yeast tRNA and 0.2 mg/ml BSA was added (50 μl/well) and incubated 1 h at room temperature. The plates were washed six times with 200 μl/well PBS-T, and the 6His mAB/HRP conjugate (Clontech, Mountain View, CA, USA) in PBS 1:1000 (50 μl/well) was added and incubated for 1 h at room temperature. The plates were washed six times with 200 μl/well PBS-T. A mix of enhanced chemiluminescence reagent was added (50 μl/well) and luminescence was measured.

[9] = biological target: T5, HCV-NS5BΔ21 RdRp genotype 2a (strain JFH1) (Hepatitis C virus genotype 2a, UniProt Q99IB8); assay: cell-free HCV-NS5BΔ21 polymerase assay, genotype 2a (JFH1); type: biochemical
T5 construct: His6 (N); made in house; host or cells: Escherichia coli C41(DE3)
Protocol: as §1, with “glycerol. […]” for “glycerol.”

[10] = tested on: HCV genotype 1b subgenomic replicon Con1; assay: microbe, parasite or virus in culture; conditions: Hepatitis C virus, Huh7.5, 72 h, read-out: EC50 replicon replication
Protocol: Each data point represents the average of at least three replicates in cell culture. HCV RNA level reductions after treatment were assessed by comparing the level of HCV RNA in compound-treated cells to that of control cells treated with 1% DMSO.

[11] = biological target: T6, HCV-NS5BΔ21 RdRp genotype 1a (strain H77) (Hepatitis C virus genotype 1a, UniProt P27958); assay: cell-free HCV-NS5BΔ21 polymerase assay, genotype 1a (H77); type: biochemical
T6 construct: His6 (N); made in house; host or cells: Escherichia coli C41(DE3)
Protocol: as §1, with “glycerol. […]” for “glycerol.”

[12] = tested on: genotype 2a infectious J6/JFH1 strain; assay: J6/JFH1 infection in cell culture (HCVcc, Huh7.5 cells); type: cell-based; conditions: Hepatitis C virus, Huh7.5, 72 h, read-out: EC50 J6/JFH1 replication
Protocol: The plasmid pFL-R-luc2A-ubi-J6/JFH1, containing the full-length cDNA of the chimeric J6/JFH1 HCV genotype 2a clone and the Renilla luciferase gene, was used to generate infectious HCV particles (HCVcc) in Huh7.5 cell culture. Huh7.5 cells were seeded in 48-well plates at a density of 10 000 cells/well, infected 24 h later with 100 μl of HCVcc and incubated overnight at 37°C. After incubation, the supernatants were removed and J6/JFH1-infected cells were washed with fresh medium. Increasing concentrations of the tested compounds were added in a medium containing 1% DMSO, and the cells were incubated 72 h at 37°C. Then, the cells were washed once with Dulbecco's PBS (Invitrogen), and 75 μl Renilla lysis buffer (Promega) was added to each well. Note that 20 μl of lysate was mixed with the luciferase assay substrate, as specified by the manufacturer. Luciferase activity was measured for 10 s in a Berthold luminometer.

[13] = biological target: T4, RNA binding to HCV-NS5BΔ21; assay: RNA binding assay (EMSA); conditions: fixed concentration of HCV-NS5BΔ21, increasing compound
Protocol: RNA binding was studied by means of the electrophoretic mobility shift assay (EMSA) with minor modifications. Briefly, 0.5 μg/ml of HCV-NS5BΔ21 was incubated with 1 μg of a 500 bp RNA at 37°C for 30 min in 20 μl of a binding buffer containing 10 mM Tris pH 7.5, 1 mM EDTA, 100 mM KCl, 0.1 mM DTT, 5% vol/vol glycerol, 10 μg/ml bovine serum albumin (BSA), in the presence of increasing concentrations of the tested compound. Samples were then loaded onto a non-denaturing agarose gel. The gel was incubated 20 min in SYBR green EMSA Nucleic Acid Gel Stain (Invitrogen, Carlsbad, CA, USA). After washing, the gel was visualized under ultraviolet transillumination.

T1 sequence (O92972 2420-2989, stated change not applied): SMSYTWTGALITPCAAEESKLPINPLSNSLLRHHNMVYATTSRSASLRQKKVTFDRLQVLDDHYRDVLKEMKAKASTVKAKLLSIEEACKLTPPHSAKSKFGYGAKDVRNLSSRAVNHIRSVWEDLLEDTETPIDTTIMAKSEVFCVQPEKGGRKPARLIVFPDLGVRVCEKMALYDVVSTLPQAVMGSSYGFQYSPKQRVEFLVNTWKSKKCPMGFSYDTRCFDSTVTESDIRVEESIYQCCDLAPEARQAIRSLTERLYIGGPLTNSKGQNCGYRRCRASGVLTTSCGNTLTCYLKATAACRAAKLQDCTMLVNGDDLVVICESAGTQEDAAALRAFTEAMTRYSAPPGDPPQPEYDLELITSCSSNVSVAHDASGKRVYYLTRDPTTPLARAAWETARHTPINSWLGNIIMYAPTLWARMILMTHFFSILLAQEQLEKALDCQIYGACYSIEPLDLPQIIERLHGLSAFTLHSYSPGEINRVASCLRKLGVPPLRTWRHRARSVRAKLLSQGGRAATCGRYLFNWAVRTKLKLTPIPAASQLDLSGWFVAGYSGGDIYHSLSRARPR
T4 sequence (O92972 2420-2989, stated change not applied): as above
T6 sequence (P27958 2421-2990, stated change not applied): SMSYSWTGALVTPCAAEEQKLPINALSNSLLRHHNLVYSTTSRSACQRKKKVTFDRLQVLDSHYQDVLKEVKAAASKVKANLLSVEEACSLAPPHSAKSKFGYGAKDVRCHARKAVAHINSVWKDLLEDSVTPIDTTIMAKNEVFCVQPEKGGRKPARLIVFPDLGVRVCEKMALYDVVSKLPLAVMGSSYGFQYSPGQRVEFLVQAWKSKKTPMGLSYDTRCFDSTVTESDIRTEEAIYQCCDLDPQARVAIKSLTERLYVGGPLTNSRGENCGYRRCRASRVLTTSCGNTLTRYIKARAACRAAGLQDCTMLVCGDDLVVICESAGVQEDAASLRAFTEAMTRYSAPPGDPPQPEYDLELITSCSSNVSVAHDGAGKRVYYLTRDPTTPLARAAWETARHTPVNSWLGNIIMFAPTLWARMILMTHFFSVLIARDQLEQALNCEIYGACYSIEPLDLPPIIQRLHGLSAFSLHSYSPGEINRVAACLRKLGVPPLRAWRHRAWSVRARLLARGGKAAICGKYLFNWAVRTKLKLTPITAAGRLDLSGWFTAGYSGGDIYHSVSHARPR
T3 sequence (O92972 2420-2989 V2535I): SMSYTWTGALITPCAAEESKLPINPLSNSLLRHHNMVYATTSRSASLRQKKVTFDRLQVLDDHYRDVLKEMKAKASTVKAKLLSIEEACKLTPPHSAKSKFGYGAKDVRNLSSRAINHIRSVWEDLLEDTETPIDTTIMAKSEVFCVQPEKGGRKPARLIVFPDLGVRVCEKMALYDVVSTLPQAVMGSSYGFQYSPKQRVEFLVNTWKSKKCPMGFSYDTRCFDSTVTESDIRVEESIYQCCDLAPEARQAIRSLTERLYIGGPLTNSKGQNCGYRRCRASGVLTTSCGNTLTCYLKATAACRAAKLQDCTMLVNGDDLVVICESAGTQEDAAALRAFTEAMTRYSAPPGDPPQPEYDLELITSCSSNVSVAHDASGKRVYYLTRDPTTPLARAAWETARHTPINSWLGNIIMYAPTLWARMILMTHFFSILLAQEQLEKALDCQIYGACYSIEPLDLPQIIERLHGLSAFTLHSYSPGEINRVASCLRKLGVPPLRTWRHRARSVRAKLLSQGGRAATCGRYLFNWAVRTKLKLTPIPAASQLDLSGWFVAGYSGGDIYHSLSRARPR
T2 sequence (O92972 2420-2989 F2581Y): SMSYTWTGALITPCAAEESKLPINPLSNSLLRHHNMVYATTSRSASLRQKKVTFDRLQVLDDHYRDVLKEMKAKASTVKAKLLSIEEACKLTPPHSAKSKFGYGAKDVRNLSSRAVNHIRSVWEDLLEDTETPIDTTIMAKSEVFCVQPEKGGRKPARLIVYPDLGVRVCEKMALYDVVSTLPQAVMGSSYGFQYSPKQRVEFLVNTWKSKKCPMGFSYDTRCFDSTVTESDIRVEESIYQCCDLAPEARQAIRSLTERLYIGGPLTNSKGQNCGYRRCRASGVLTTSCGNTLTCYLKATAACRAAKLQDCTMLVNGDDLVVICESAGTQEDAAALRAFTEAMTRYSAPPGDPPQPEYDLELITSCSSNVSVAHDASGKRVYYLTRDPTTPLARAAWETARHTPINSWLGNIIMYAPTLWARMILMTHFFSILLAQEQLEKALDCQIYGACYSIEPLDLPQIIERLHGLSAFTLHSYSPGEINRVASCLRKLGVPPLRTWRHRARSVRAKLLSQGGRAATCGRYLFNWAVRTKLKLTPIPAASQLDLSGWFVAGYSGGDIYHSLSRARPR

SMILES: O=c1c(O)c(-c2ccc(O)cc2)oc2cc(O)cc(O)c12 [Kaempferol]
- inhibition at 20 µM [1]: 74.7%
- Slope of fluorescence increase [1]: 15.7

SMILES: O=C1C[C@@H](c2ccc(O)cc2)Oc2cc(O)ccc21 [Liquiritigenin]
- % HCV-NS5BΔ21 inhibition [1]: 6.1%
- Slope of fluorescence increase [1]: 58.3

SMILES: O=c1cc(-c2ccc(O)c(O)c2)oc2cc(O)cc(O)c12 [Luteolin]
- inhibition at 20 µM [1]: 81.7%
- Slope of fluorescence increase [1]: 11.4

SMILES: O=c1c(O)c(-c2ccc(O)cc2O)oc2cc(O)cc(O)c12 [Morin]
- inhibition at 20 µM [1]: 69.3%
- Slope of fluorescence increase [1]: 19.0

SMILES: O=c1c(O)c(-c2cc(O)c(O)c(O)c2)oc2cc(O)cc(O)c12 [Myricetin]
- inhibition at 20 µM [1]: 79.2%
- Slope of fluorescence increase [1]: 12.9

SMILES: O=C1C[C@@H](c2ccc(O)cc2)Oc2cc(O)cc(O)c21 [Naringenin]
- inhibition at 20 µM [1]: 6%
- Slope of fluorescence increase [1]: 58.3

SMILES: O=c1c(O)c(-c2ccc(O)c(O)c2)oc2cc(O[C@@H]3O[C@H](CO)[C@@H](O)[C@H](O)[C@H]3O)c(O)c(O)c12 [Quercetagetin-7-O glucoside]
- % HCV-NS5BΔ21 inhibition [1]: 42.5%
- Slope of fluorescence increase [1]: 35.7

SMILES: O=c1c(O)c(-c2ccc(O)c(O)c2)oc2cc(O)c(O)c(O)c12 [Quercetagetin]
- NS5B protein expression [2]: inhibited NS5B protein expression in a dose-dependent manner
- reduction of catalytic activity by the compound [3]: 3 fold
- susceptibility of V116I variant [4]: did not reduce
- change of susceptibility [5]: No change
- RNA duplex formation [6]: not inhibited
- IC50 [7]: 2.8 to 6.1 µM
- inhibition at 20 µM [1]: 85.6%
- Slope of fluorescence increase [1]: 8.9
- IC50 ([1]; genotype 1b (strain J4), read-out: IC50 HCV-NS5BΔ21 polymerase activity): 4.3 ± 0.7 µM
- mode of inhibition (double-reciprocal plots) ([1]; increasing ATP or GTP with poly-U or poly-C): non-competitive
- inhibition of RNA binding, EC50 [8]: of the same order as that in the enzyme assay
- IC50 [9]: 6.1 ± 1.6 µM
- EC50 [10]: 5.4 ± 3.3 µM
- IC50 [11]: 2800 ± 400 nM
- EC50 [12]: 40.2 ± 17.7 µM
- amount of free RNA [13]: increased in a quercetagetin concentration-dependent manner

SMILES: COc1cc(OC)c2c(=O)c(OC)c(-c3ccc(OC)c(OC)c3)oc2c1 [Quercetin 3.5.7.3’.4’ pentamethylether]
- % HCV-NS5BΔ21 inhibition [1]: 4.0%
- Slope of fluorescence increase [1]: 59.6

SMILES: COc1cc(O)c2c(=O)c(OC)c(-c3ccc(OC)c(OC)c3)oc2c1 [Quercetin 3.7.3’.4’ tétramethylether]
- % HCV-NS5BΔ21 inhibition [1]: 14.5%
- Slope of fluorescence increase [1]: 53.0

SMILES: O=c1c(O[C@@H]2O[C@H](CO)[C@@H](O)[C@H](O)[C@H]2O)c(-c2ccc(O)c(O)c2)oc2cc(O)cc(O)c12 [Quercetin-3-O glucopyranoside]
- % HCV-NS5BΔ21 inhibition [1]: 25.9%
- Slope of fluorescence increase [1]: 46.0

SMILES: O=c1c(O)c(-c2ccc(O)c(O)c2)oc2cc(O)cc(O)c12 [Quercetin]
- inhibition at 20 µM [1]: 83.7%
- Slope of fluorescence increase [1]: 10.1

SMILES: O=c1c(O)c(-c2cc(O)c(O)c(O)c2)oc2cc(O)ccc12 [Robinetin]
- inhibition at 20 µM [1]: 55.9%
- Slope of fluorescence increase [1]: 27.4

SMILES: C[C@@H]1O[C@@H](OC[C@H]2O[C@@H](Oc3c(-c4ccc(O)c(O)c4)oc4cc(O)cc(O)c4c3=O)[C@H](O)[C@@H](O)[C@@H]2O)[C@H](O)[C@H](O)[C@H]1O [Rutin]
- inhibition at 20 µM [1]: 30.3%
- Slope of fluorescence increase [1]: 43.2

SMILES: O=c1cc(-c2ccc(O)cc2)oc2cc(O)c(O)c(O)c12 [Scutellarein]
- inhibition at 20 µM [1]: 67.4%
- Slope of fluorescence increase [1]: 20.2

SMILES: O=c1cc(-c2cc(O)c(O)c(O)c2)oc2cc(O)cc(O)c12 [Tricetin]
- inhibition at 20 µM [1]: 69.5%
- Slope of fluorescence increase [1]: 18.9
